Legend:
Format in all cases: in vivo
Nilaparvata lugens = test: Example B12: Activity against Nilaparvata lugens; settings: 504 h, 400 ppm spray on rice plants, larvae in the 2nd and 3rd stages, evaluated after 21 days, read-out: percentage reduction in population (% activity)
Procedure: (§1) Rice plants are sprayed with an aqueous emulsion spray mixture comprising 400 ppm of active ingredient. After the spray coating has dried on, the plants are populated with plant hopper larvae in the 2nd and 3rd stages. The test is evaluated after 21 days. The percentage reduction in population (% activity) is determined by comparing the number of surviving plant hoppers on the treated and untreated plants.

Anthonomus grandis = test: Example B1: Activity against Anthonomus grandis; settings: 72 h, 400 ppm spray on young cotton plants, 10 adult beetles, evaluated after 3 days, read-out: percentage reduction in population and percentage reduction in feeding damage (% activity)
Procedure: Young cotton plants are sprayed with an aqueous emulsion spray mixture comprising 400 ppm of active ingredient. After the spray coating has dried on, the plants are populated with 10 adult Anthonomus grandis and placed into a plastic container. 3 days later, the test is evaluated. The percentage reduction in population and the percentage reduction in feeding damage (% activity) are determined by comparing the number of dead beetles and the feeding damage between the treated and the untreated plants.

Ctenocephalides felis = test: Example B4: Activity against Ctenocephalides felis (systemic); settings: 5 ppm in blood at 37°, fed through membrane, 20 adult fleas, evaluated after 24 and 48 hours, read-out: percentage reduction in population (% activity)
Procedure: Twenty adult fleas of the species Ctenocephalides felis are placed into a flat, round cage, both sides of which are covered with gauze. A container whose bottom is sealed with a Parafilm membrane is placed onto the cage. In the container there is blood which comprises 5 ppm of active ingredient and which is constantly heated at 37°. The fleas take up blood through the membrane. The test is evaluated 24 and 48 hours after setting up the experiment The percentage reduction in population (% activity) is determined by comparing the number of dead fleas when using treated and untreated blood. 24 hours after the treatment, the blood is replaced by fresh blood which has also been treated.

Aphis craccivora = test: Example B2: Activity against Aphis craccivora; settings: 400 ppm spray on infected pea seedlings, 20° C., evaluated after 3 and 6 days, read-out: percentage reduction in population (% activity)
Procedure: (§2) Pea seedlings are infected with Aphis craccivora, subsequently sprayed with a spray mixture comprising 400 ppm of active ingredient and then incubated at 20° C. The test is evaluated after 3 and 6 days. The percentage reduction in population (% activity) is determined by comparing the number of dead aphids on the treated and untreated plants.

Heliothis virescens = test: Example B6: Activity against Heliothis virescens; settings: 144 h, 400 ppm spray on young soyabean plants, 10 caterpillars in the first stage, evaluated after 6 days, read-out: percentage reduction in population and in feeding damage (% activity)
Procedure: Young soyabean plants are sprayed with an aqueous emulsion spray mixture comprising 400 ppm of active ingredient. After the spray coating has dried on, the plants are populated with 10 Heliothis virescens caterpillars in the first stage and transferred to a plastic container. The test is evaluated after 6 days. The percentage reduction in population and in feeding damage (% activity) are determined by comparing the number of dead caterpillars and the feeding damage between the treated and untreated plants.

Nephotettix cincticeps = test: Example B10: Activity against Nephotettix cincticeps; settings: 504 h, 400 ppm spray on rice plants, larvae in the 2nd and 3rd stages, evaluated after 21 days, read-out: percentage reduction in population (% activity)
Procedure: as §1, with “with” for “with plant hopper”, “surviving leaf” for “surviving plant”, “and untreated,” for “and untreated”

Myzus persicae = test: Example B8: Activity against Myzus persicae; settings: 400 ppm spray on infected pea seedlings, 20°, evaluated after 3 and 6 days, read-out: percentage reduction in population (% activity)
Procedure: as §2, with “Myzus persicae,” for “Aphis craccivora,”, “20°.” for “20° C.”

Diabrotica balteata = test: Example B5: Activity against Diabrotica balteata; settings: 144 h, 400 ppm spray on maize seedlings, 10 larvae in the second stage, evaluated after 6 days, read-out: percentage reduction in population (% activity)
Procedure: Maize seedlings are sprayed with an aqueous emulsion spray mixture comprising 400 ppm of active ingredient. After the spray coating has dried on, the seedlings are populated with 10 Diabrotica balteata larvae in the second stage and transferred to a plastic container. The test is evaluated after 6 days. The percentage reduction in population (% activity) is determined by comparing the number of dead larvae between the treated and untreated plants.

CN1COCN(Cc2ccc(Cl)nc2)/C1=N/[N+](=O)[O-] [Compound No. 1.2, 5-(2-Chloropyrid-5-ylmethyl)-3-methyl-4-nitroiminoperhydro-1,3,5-oxadiazine]
> 80%: inhibition at 400 ppm (Nilaparvata lugens) | inhibition at 400 ppm (Anthonomus grandis) | inhibition at 5 ppm (Ctenocephalides felis) | inhibition at 400 ppm (Aphis craccivora) | inhibition at 400 ppm (Heliothis virescens) | inhibition at 400 ppm (Nephotettix cincticeps) | inhibition at 400 ppm (Myzus persicae) | inhibition at 400 ppm (Diabrotica balteata)

— US7655650B2, “Oxadiazine derivatives” (Syngenta Corporation, priority 1992, dated 2010)
